These results are taken from PubChem BioAssay AID686920 (Broad Institute, 2013).

Calls of active or inactive are those of the source.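 The calls were made as follows: active = fitted curve reaching 35% inhibition at a dose no higher than twice the top valid tested dose; inconclusive = flat fit with 30 to 70% inhibition, or a poor fit; inactive = the rest, including activity in the opposite direction.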

A short description of assay [1]: NR0B1 reporter signal reduction in A673 cells – cell-based, luciferase luminescence, cherry-pick, EWS/Fli inhibitor project, dose response (AID 686920). The conditions noted are these: A673 NR0B1-luciferase reporter, viability-normalised luminescence. (In a reporter assay the amount or activity of a reporter protein is the signal.)
Assay [2] deals with A673 NR0B1-luciferase reporter, viability-normalised luminescence. The assay is described as above.

As to `Cc1ccc(Cc2c(-c3ccco3)nc3c(C)cc(Br)cn23)cc1`, in assay [1] (at 21 µM (top of the series)), the activity change, negative = inhibition was 77.8% (inactive).

Take `CCOc1ccc(NC(=O)C(=O)N/N=C\c2ccc(CNS(=O)(=O)c3ccccc3)o2)cc1`: the activity change, negative = inhibition in assay [1] (at 68 µM (top of the series)) was -7.85% (inactive).

As to `N/C(Cc1nc(-c2ccc(F)cc2)cs1)=N\O`, in assay [1] (at 68 µM (top of the series)), the activity change, negative = inhibition was 42.1% (inactive). The same measure, in the same setting: in the case of `C[C@H](CO)N1C[C@H](C)[C@H](CN(C)Cc2ccc(C(=O)Nc3ccccc3N)cc2)Oc2ccc(N(C)C)cc2CC1=O` it was 10.7% (inactive); in that of `c1cncc(-c2ccc([C@@H]3[C@H]4CNC[C@@H]3N4CC3CCOCC3)cc2)c1`, -7.31% (inactive).

For the compound `CN(C)C(=S)N=Nc1[nH]c2ccccc2c1O`, the activity change, negative = inhibition in assay [1] (at 68 µM (top of the series)) is 13% (inactive). On the same count and under the same terms, in the case of `COc1cccc(S(=O)(=O)N(C)C[C@H]2OCc3cnnn3CCCC(=O)N([C@@H](C)CO)C[C@H]2C)c1` it was -19.9% (inactive); in that of `COc1ccc(-c2cn(-c3ccc(OC)cc3)c3[n+]2-c2ccccc2CC3)cc1`, -21.1% (inactive); in that of `COC(=O)C[C@H]1CC[C@H]2[C@@H](COc3ccc(NC(=O)Nc4cccc(Cl)c4)cc3C(=O)N2C)O1`, 18.6% (inactive).

Turning to `COC(=O)C[C@@H]1CC[C@@H]2[C@@H](COc3ccc(NC(=O)Nc4cccc(Cl)c4)cc3C(=O)N2C)O1`, the activity change, negative = inhibition in assay [1] (at 68 µM (top of the series)) was -7.4% (inactive). Consider `CCn1c(/C=N/NC(=O)c2ccc(OC)cc2)nc2ccccc21`, for which the activity change, negative = inhibition in assay [1] (at 68 µM (top of the series)) is 30.3% (inactive). On the same count and under the same terms, in the case of `O=C(CNC(=O)Cc1ccccc1)N=Nc1c(O)n(Cc2ccc3c(c2)OCO3)c2ccccc12` it was -28.3% (inactive). On the same count and under the same terms, the figure for `CN(C)C(=O)c1ccc(-c2ccccc2[C@@H]2[C@@H](CO)N(C(=O)C3CC3)[C@H]2C#N)cc1` is -1.25% (inactive); for `S=C(NCCN1CCOCC1)Nc1ccccc1Cl` it is 15.5% (inactive); for `COc1cc(/C=N\Nc2nc(-c3ccc(C)cc3)c(NC(C)=O)s2)ccc1O` it is 80.8% (inactive). Consider `COc1ccccc1-c1cn(CC[C@H]2CC[C@@H](NC(=O)C3CCCC3)[C@@H](CO)O2)nn1`, for which the activity change, negative = inhibition in assay [1] (at 68 µM (top of the series)) was -4.29% (inactive). On the same count and under the same terms, in the case of `COc1ccc(C/C(N)=N/OC(C)=O)cc1OC` it was 13.8% (inactive); in that of `CCCCOc1ccc(NC(=O)C(=O)NCCCn2ccnc2)cc1`, -0.492% (inactive). Still for that read-out and setting: in the case of `Cc1c(N=Cc2cc(Br)cc(Br)c2O)cccc1C(=O)O` it was 14.9% (inactive); in that of `C=CCOC(=O)c1sc(NC(=O)c2ccc(OC)cc2)nc1C`, 39% (inactive). Regarding `CCNC(=O)[C@@H]1[C@@H](CO)[C@@H]2Cn3c(ccc(C4=CCCCC4)c3=O)[C@H]1N2CC`, the activity change, negative = inhibition in assay [1] (at 68 µM (top of the series)) was -2.58% (inactive). For the compound `O=C1CCCC2=C1C(c1ccccn1)Nc1ccc(C(=O)c3ccccc3)cc1N2` (stereo unspecified), the activity change, negative = inhibition in assay [1] (at 21 µM (top of the series)) is 8.98% (inactive). On to `CCc1ccc(Cn2ncc3c(C(=O)O)cc(C)nc32)cc1`, for which the activity change, negative = inhibition in assay [1] (at 68 µM (top of the series)) is 13.8% (inactive). Same read-out and setting: in the case of `COC(=O)C(CC#Cc1ccc2c(c1)[C@]1(C(=O)N2)[C@H](c2ccc(OCCO)cc2)N2[C@H](c3ccccc3)[C@H](c3ccccc3)OC(=O)[C@H]2[C@@H]1C(=O)N1CCN(c2ncccn2)CC1)C(=O)OC` it was 0.883% (inactive). Still for that read-out and setting: in the case of `COC(=O)c1c(C)[nH]c(/C=N/Nc2ccccc2)c1C` it was 38.6% (inactive); in that of `CCS(=O)(=O)N1Cc2ccccc2CC1C(=O)Nc1nnc(SCc2ccc(C#N)cc2)s1` (stereo unspecified), -0.731% (inactive). For the compound `Oc1c(Cl)cc(Cl)c2cccnc12`, the activity change, negative = inhibition in assay [1] (at 68 µM (top of the series)) was -29.3% (inactive). `Cc1occc1-c1n[nH]c(=S)n1C`: the activity change, negative = inhibition in assay [1] (at 68 µM (top of the series)) is 10.2% (inactive).

As for `O=C(Nc1cccc(Oc2ccc3c(c2)C(=O)NC3=O)c1)c1cccs1`, the activity change, negative = inhibition in assay [1] (at 68 µM (top of the series)) was -4.58% (inactive).

For `CC(=O)Nc1ccc(OCC(=O)N(CC(C)C)C2CCS(=O)(=O)C2)cc1` (stereo unspecified), in assay [1] (at 68 µM (top of the series)), the activity change, negative = inhibition was 6.28% (inactive).

Turning to `COC(=O)C[C@@H]1CC[C@@H]2[C@@H](COc3ccc(NC(=O)Nc4cccc(F)c4)cc3C(=O)N2C)O1`, the activity change, negative = inhibition in assay [1] (at 21 µM (top of the series)) is -4.28% (inactive). For the compound `COC(=O)C[C@@H]1CC[C@@H]2[C@H](COc3ccc(NC(=O)c4ccc(F)cc4)cc3C(=O)N2C)O1`, in assay [1] (at 68 µM (top of the series)), the activity change, negative = inhibition is -47% (inactive). Regarding `COc1ccccc1NS(=O)(=O)c1cc(NC(=O)c2cc3ccccc3oc2=O)ccc1C`, in assay [1] (at 68 µM (top of the series)), the activity change, negative = inhibition is 53.4% (inactive).

In the case of `Cc1ccccc1N=Nc1c(O)n(C)c2ccccc12`, in assay [1] (at 68 µM (top of the series)), the activity change, negative = inhibition was -31.3% (inactive). Same read-out and setting: in the case of `CC1(CCc2ccccc2)NC(=O)N(CC(=O)N2CC(=O)Nc3ccccc32)C1=O` (stereo unspecified) it was 6.97% (inactive); in that of `COC(=O)C[C@H]1CC[C@@H]2[C@H](COc3ccc(NC(=O)Nc4cccc(Cl)c4)cc3C(=O)N2C)O1`, 14.5% (inactive). In the case of `CN(C)[C@@H]1CCC[C@@H]1OC(=O)C(c1ccccc1)c1ccccc1`, in assay [1] (at 68 µM (top of the series)), the activity change, negative = inhibition is 12.1% (inactive).

For `Brc1ccc(CSc2nnc(-c3ccco3)o2)cc1`, the activity change, negative = inhibition in assay [1] (at 68 µM (top of the series)) is 86.7% (inactive).

As for `CCCc1nc2ccc(NC(=O)c3cccs3)cc2c(=O)n1Cc1ccccc1Cl`, the activity change, negative = inhibition in assay [1] (at 68 µM (top of the series)) was 5.64% (inactive). The same measure, in the same setting: the figure for `N=c1ccn2c(n1)O[C@H]1[C@H](O)[C@@H](CO)O[C@H]12` is -26.9% (inactive); for `Nc1ncn([C@@H]2O[C@H](CO)[C@@H](O)[C@H]2O)c(=O)n1` it is -32.1% (inactive); for `O=C(Cc1nn[nH]n1)c1ccccc1O` it is 7.17% (inactive).

Consider `COc1cc(C(c2c(C)[nH][nH]c2=O)c2c(C)[nH][nH]c2=O)ccc1OC(C)C`, for which, in assay [1] (at 21 µM (top of the series)), the activity change, negative = inhibition is 28.1% (inactive).

As for `COC(=O)C[C@@H]1CC[C@@H]2[C@H](COc3ccc(NC(=O)Nc4cccc(Cl)c4)cc3C(=O)N2C)O1`, the activity change, negative = inhibition in assay [1] (at 68 µM (top of the series)) is -19.3% (inactive). Same read-out and setting: in the case of `C/C=C/c1ccc([C@H]2[C@@H](CO)N3C(=O)CN(S(=O)(=O)c4cccc(F)c4)C[C@@H]23)cc1` it was -7.12% (inactive); in that of `COC(=O)C[C@H]1C=C[C@@H](NC(=O)Nc2ccc(C(F)(F)F)cc2)[C@H](CO)O1`, 8.17% (inactive); in that of `Cc1ccsc1C(=O)OCC(=O)NCCC1=CCCCC1`, 97.5% (inactive). On the same count and under the same terms, in the case of `COC(=O)[C@H]1[C@H](CO)[C@H]2Cn3c(ccc(-c4ccccc4F)c3=O)[C@@H]1N2CC1CCCC1` it was -18% (inactive); in that of `COC(=O)C[C@@H]1CC[C@@H]2[C@@H](COc3ccc(NC(=O)Cc4cccs4)cc3C(=O)N2C)O1`, -27.4% (inactive). With `CCOc1cc2[nH]c(=S)n(Cc3ccc(C(=O)N4CCN(C)CC4)cc3)c(=O)c2cc1OCC`, in assay [1] (at 68 µM (top of the series)), the activity change, negative = inhibition was 20% (inactive). Still for that read-out and setting: the figure for `CC(Oc1cccc(Cl)c1)C(=O)NCCCCc1ccccc1` (stereo unspecified) is 4.85% (inactive); for `COC(=O)C[C@@H]1CC[C@@H]2[C@H](COc3ccc(NC(=O)c4cccc(Cl)c4)cc3C(=O)N2C)O1` it is -6.57% (inactive); for `Nc1ccn([C@@H]2O[C@H](CO)[C@@H](O)C2O)c(=O)n1` (stereo partly specified) it is -31.3% (inactive). Still for that read-out and setting: in the case of `CC(=O)c1ccc(N(C(=O)Cn2nnc3ccccc32)C(C(=O)NCc2ccccc2)c2ccccn2)cc1` (stereo unspecified) it was 102% (inactive); in that of `COC(=O)C[C@@H]1CC[C@@H]2[C@H](COc3ccc(NC(=O)c4cc(F)cc(F)c4)cc3C(=O)N2C)O1`, -0.173% (inactive). For the compound `O=C(CCCCl)Nc1nc(-c2ccc3c(c2)OCCO3)cs1`, the activity change, negative = inhibition in assay [1] (at 7.5 µM (top of the series)) is 80% (inactive). `Cc1noc(C)c1C(=O)Nc1sccc1C(N)=O`: the activity change, negative = inhibition in assay [1] (at 68 µM (top of the series)) is 20.7% (inactive). Same read-out and setting: in the case of `CCCn1nnc(NC(=S)NC(=O)C(C)(C)C)n1` it was 37.8% (inactive); in that of `Cc1ccc(N=C2NC(=O)/C(=C\c3cccs3)S2)cc1C`, 48.8% (inactive). `COc1ccc(NC(=S)N=Nc2c(O)[nH]c3ccccc23)cc1`: the activity change, negative = inhibition in assay [1] (at 68 µM (top of the series)) was 29.4% (inactive). For `C/C(=N\N(c1ccccc1)c1ccccc1)c1ccco1`, the activity change, negative = inhibition in assay [1] (at 68 µM (top of the series)) is -1.23% (inactive).

Turning to `COCc1cc(C)nc2sc(C(=O)NCCO)c(-n3cccc3)c12`, the activity change, negative = inhibition in assay [1] (at 21 µM (top of the series)) is 112% (inactive). In the case of `Cc1cc(C(=O)NNC(=O)c2ccc(S(=O)(=O)N(C)C)cc2)c(C)o1`, the activity change, negative = inhibition in assay [1] (at 68 µM (top of the series)) was 5.18% (inactive). On the same count and under the same terms, the figure for `Cc1ccc(NC(=O)COC(=O)c2ccc3c(c2)OCO3)cc1S(=O)(=O)N1CCCCC1` is 9.71% (inactive); for `COC(=O)C[C@@H]1CC[C@@H]2[C@H](COc3ccc(NC(=O)Nc4cccc(C#N)c4)cc3C(=O)N2C)O1` it is -24.9% (inactive).

Regarding `Cc1noc(C)c1NC(=O)Nc1ccc2c(c1)CC(=O)N([C@@H](C)CO)C[C@@H](C)[C@@H](CN(C)Cc1ccc(Cl)c(Cl)c1)O2`, in assay [1] (at 68 µM (top of the series)), the activity change, negative = inhibition was -31.5% (inactive). Turning to `Oc1cccc(-c2nnc(-c3cccc(O)c3)nn2)c1`, in assay [2], the AC35 was 7.64 µM.

`COC(=O)C[C@H]1CC[C@H]2[C@H](COc3ccc(NC(=O)Nc4cccc(Cl)c4)cc3C(=O)N2C)O1`: the AC35 in assay [2] was 44.1 µM. On the same count and under the same terms, in the case of `N#CC1=C(N)Oc2cc(N)ccc2C1c1cccc(Br)c1` (stereo unspecified) it was 0.542 µM. Same read-out and setting: the figure for `COc1ccc(C2=Nn3c([n+](C)c4ccccc43)SC2)cc1` is 46.5 µM. The same measure, in the same setting: in the case of `Cc1ccc(/C=N/Nc2ccc3ccccc3n2)o1` it was 4.21 µM.
